Read-outs that look alike come from different tables or passages of the source.
How the values were obtained:
[1] = target: T1, HCV NS3-NS4A protease (Hepatitis C virus genotype 1b, UniProt P26663); assay: HCV Protease Assay (SensoLyte 620 HCV Protease Assay kit); format: biochemical; settings: 1.2 nM HCV NS3-NS4A protease, 60 min at room temperature, 5% DMSO
T1 construct: made in house
Summary of the method: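 Protease at 1.2 nM, run with the SensoLyte 620 fluorogenic kit under supplier conditions, with compounds at several concentrations in buffer with 5% final DMSO. Reactions ran 60 min at room temperature before fluorescence reading; IC50 from four-parameter sigmoidal fit of percent inhibition.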

[2] = tested on: GS4.1 cells; assay: Cytotoxicity evaluation (Cell Titer 96 AQueous One Solution Cell Proliferation Assay); format: cell-based; settings: cellular viability
Procedure: (§1) For cytotoxicity evaluation, GS4.1 cells were treated with compounds as described above and cellular viability was monitored using the Cell Titer 96 AQueous One Solution Cell Proliferation Assay (Promega). CC50 values were determined from the % cytotoxicity versus concentration data with Tecan Magellan software as described above.

[3] = tested on: Huh-7 cells containing HCV Con1 subgenomic replicon (GS4.1 cells); assay: HCV Replicon Assay (NS4A ELISA); format: cell-based; settings: NS4A protein by ELISA
Summary of the method: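 GS4.1 cells (Huh-7 with HCV Con1 subgenomic replicon) given ten 2-fold compound dilutions (top 75 μM) or a single 15 μM dose in 0.5% DMSO for 72 h at 37 °C. NS4A measured by cell ELISA (A492); EC50 from four-parameter sigmoidal fit, single-dose results as % inhibition at 15 μM.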

[4] = tested on: HCV genotype 2a infectious virus; assay: HCV genotype 2a infectious virus assay; format: cell-based, HCV (strain JFH-1; genotype 2a); settings: Hepatitis C virus
Procedure: (§2) Compounds were tested in a HCV genotype 2a infectious virus assay and the results are summarized in Table 7, wherein A represents a value smaller than 1 μM, and B represents a value between 1 μM to 10 μM, C represents a value between 10 μM to 75 μM and D represents a value greater than 75 μM.
The HCV in vitro infection core ELISA assay measures the ability of a test compound to inhibit replication of an infectious HCV (strain JFH-1; genotype 2a) in cell culture. […] We have developed this model for determining the efficacy of antiviral compounds against an infectious virus in vitro using HCV producing cells (HPC), a proprietary Huh-7-derived cell sublineage capable of propagating the JFH-1 HCV virus. The readout of the assay is quantification of HCV core protein by ELISA 5 days post infection with JFH-1 virus and treatment with a test compound.
Ninety-six-well Corning Costar plates were seeded with HPC cells at a density of 3.0×10^3 cells per well in 50 μL of Huh-7 media. Compound stock solutions were made up freshly in Huh-7 media (DMEM (containing glucose, L-glutamine and sodium pyruvate), 10% FBS, 100 IU/mL penicillin, 100 μg/mL streptomycin, 2 mM GlutaMAX, 1% MEM non-essential amino acids) as 2× stock. Seven additional 3-fold drug dilutions were prepared from the 2× stocks in Huh-7 media. At least 4 hours after HPC cells were seeded, the media in the 96-well culture plates was aspirated and 50 μL of each drug dilution and 50 μL of JFH-1 HCV was added to each well.
At 16 hrs post treatment and infection, the virus inoculum was removed by aspiration. The cultures were treated at the same final concentrations of drug diluted to 1× in Huh-7 media to a final volume of 200 μL. Cells were incubated in the presence of drug for 4 additional days at 37° C./5% CO2.
Media was removed from the plates by aspiration. Cells were fixed with 250 μL 1:1 acetone:methanol for 90 seconds, washed once in PBS and then three times with 1×KPL wash solution. The assay plates were then blocked with 150 μL/well 10% FBS-TNE (50 mM Tris-HCl (pH 7.5; Sigma), 100 mM NaCl, 1 mM EDTA with 10% FBS) for 1 hr at room temperature. Cells were washed three times with 1×KPL wash solution and incubated with 100 μL/well anti-hepatitis C core mAb (1 mg/mL stock diluted 1:500 in 10% FBS-TNE) for 2 hours at 37° C. Cells were washed three times with 1×KPL wash solution and incubated with 100 μL/well HRP-goat anti-mouse antibody (diluted 1:2,500 in 10% FBS-TNE) for 1 hr at 37° C.
OPD solution was prepared using 1 OPD tablet+12 mL citrate/phosphate buffer (16 mM citric acid, 27 mM Na2HPO4) plus 5 μL 30% H2O2 per plate. Cells were washed three times with 1×KPL wash solution and developed with 100 μL/well OPD solution for 30 minutes in the dark at room temperature. The reaction was stopped with 100 μL/well of 2NH2SO4, and absorbance measured at A490 nm in a Victor^3 V 1420 multilabel counter (Perkin Elmer). The EC50 values for each compound were calculated from dose response curves from the resulting best-fit equations determined by Microsoft Excel and XLfit 4.1 software. The negative control for inhibition of virus replication was untreated HPC cells infected with the JFH-1 HCV virus strain. The negative ELISA control was untreated, uninfected HPC cells. The positive ELISA control was untreated HPC cells infected the JFH-1 HCV virus strain.

[5] = Cytotoxicity (CC50) in the genotype 1b replicon assay; format: cell-based; settings: human, GS4.1 cells; genotype 1b replicon assay as described in Example 32
Procedure: as §1
as §2, with “a” for “a HCV”, “1b replicon” for “2a infectious virus”, “assay as described in Example 32” for “assay”, “6,” for “7,”

[6] = Cytotoxicity evaluation (Cell Titer 96 AQueous One Solution Cell Proliferation Assay); format: cell-based; settings: human; GS4.1 cells, cellular viability
Procedure: as §1

[7] = tested on: genotype 1b replicon; assay: Antiviral activity in a genotype 1b replicon assay; format: cell-based, HCV; settings: Hepatitis C virus; genotype 1b replicon assay as described in Example 32; read-out: EC50
Procedure: General procedure: Huh-7 cells containing HCV Con1 subgenomic replicon (GS4.1 cells) were grown in Dulbecco's Modified Eagle Medium (DMEM) supplemented with 10% fetal bovine serum (FBS), 2 mM L-glutamine, 110 mg/L sodium pyruvate, 1× non-essential amino acids, 100 U/mL penicillin-streptomycin, and 0.5 mg/mL G418 (Invitrogen). For dose-response testing, the cells were seeded in 96-well plates at 7.5×10^3 cells/well in a volume of 50 μL, and incubated at 37° C./5% CO2. Three hours after plating, 50 μL of ten 2-fold serial dilutions of compounds (highest concentration, 75 μM) were added, and cell cultures were incubated at 37° C./5% CO2 in the presence of 0.5% DMSO. Alternatively, compounds were tested at a single concentration of 15 μM. In all cases, Huh-7 cells lacking the HCV replicon served as negative control. The cells were incubated in the presence of compounds for 72 hr after which they were monitored for expression of the NS4A protein by enzyme-linked immunosorbent assay (ELISA). For this, the plates were then fixed for 1 min with acetone/methanol (1:1, v/v), washed twice with phosphate-buffered saline (PBS), 0.1% Tween 20, blocked for 1 hr at room temperature with TNE buffer containing 10% FBS and then incubated for 2 hr at 37° C. with the anti-NS4A mouse monoclonal antibody A-236 (ViroGen) diluted in the same buffer. After washing three times with PBS, 0.1% Tween 20, the cells were incubated 1 hr at 37° C. with anti-mouse immunoglobulin G-peroxidase conjugate in TNE, 10% FBS. After washing as described above, the reaction was developed with O-phenylenediamine (Zymed). The reaction was stopped after 30 min with 2 NH2SO4, and absorbance was read at 492 nm using Sunrise Tecan spectrophotometer. EC50 values were determined from the % inhibition versus concentration data using a sigmoidal non-linear regression analysis based on four parameters with Tecan Magellan software. When screening at a single concentration, the results were expressed as % inhibition at 15 μM.
as §2, with “a” for “a HCV”, “1b replicon” for “2a infectious virus”, “assay as described in Example 32” for “assay”, “6,” for “7,”

[8] = rcm bond, 14-membered ring, DCE
[9] = Hepatitis C virus, Huh-7, 72 hr

T1 sequence (P26663 1027-1208): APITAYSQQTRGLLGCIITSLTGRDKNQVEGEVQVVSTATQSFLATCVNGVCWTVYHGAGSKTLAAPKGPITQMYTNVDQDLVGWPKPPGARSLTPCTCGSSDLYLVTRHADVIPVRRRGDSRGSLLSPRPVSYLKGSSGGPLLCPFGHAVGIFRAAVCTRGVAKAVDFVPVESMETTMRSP

## COc1ccc2c(O[C@@H]3C[C@H]4C(=O)N(C)CCCCCC/C=C\[C@@H]5C[C@@]5(C(=O)NS(=O)(=O)C5(C)CC5)NC(=O)N4C3)cc(-c3nc(C(C)C)cs3)nc2c1C [Compound 76b]
[1]
  IC50: < 1000 nM
[2]
  CC50: > 75000 nM
[3]; 72 hr
  EC50: 1000 to 10000 nM

## COc1ccc2c(O[C@H]3C[C@H]4C(=O)N(C)CCCC/C=C\[C@@H]5C[C@@]5(C(=O)NS(=O)(=O)C5(C)CC5)NC(=O)N4C3)cc(-c3csc(C#N)n3)nc2c1Cl [Compound T2, (Z)-(4R,6S,15S,17S)-[17-[8-chloro-7-methoxy-2-(2-cyanothiazol-4-yl)quinolin-4-yloxy]-13-N-methyl-2,14-dioxo-1,3,13-triazatricyclo-[13.3.0.0]octadec-7-en-4-yl]carbonyl-(1-methylcyclopropyl)sulfonamide]
[1]
  IC50: < 1000 nM
[2]
  CC50: > 75000 nM
[3]; 72 hr
  EC50: < 1000 nM

## COc1ccc2c(O[C@H]3C[C@H]4C(=O)N(C)CCCC/C=C\[C@@H]5C[C@@]5(C(=O)NS(=O)(=O)C5CC5)NC(=O)N4C3)cc(-c3nc(C(F)(F)F)cs3)nc2c1C [Compound 69b, (Z)-(4R,6S,15S,17S)-[17-[7-methoxy-8-methyl-2-(4-trifluoromethythiazol-2-yl)quinolin-4-yloxy]-13-N-methyl-2,14-dioxo-1,3,13-triazatricyclo[13.3.0.0]octadec-7-en-4-yl]carbonyl(cyclopropyl)sulfonamide]
[1]
  IC50: < 1000 nM
[4]
  EC50: < 1000 nM
[5]
  CC50: > 75000 nM
[6]
  CC50: > 75000 nM
[3]; [9]
  EC50: < 1000 nM
[7]
  EC50: < 1000 nM

## CCOC(=O)[C@@]12C[C@@H]1C=CCCCCN(C)C(=O)[C@@H]1C[C@@H](O[Si](C)(C)C(C)(C)C)CN1C(=O)N2
[8]; from C=CCCCCN(C)C(=O)[C@@H]1C[C@@H](O[Si](C)(C)C(C)(C)C)CN1C(=O)N[C@]1(C(=O)OCC)C[C@@H]1C=C, Hoveyda-Grubbs II (6%), 1.9 mM, 3.0 h
  ring closure, isolated yield: 51%

## COc1ccc2c(O[C@@H]3C[C@H]4C(=O)N(C)CCCCC/C=C\[C@@H]5C[C@@]5(C(=O)NS(=O)(=O)C5(C)CC5)NC(=O)N4C3)cc(-c3nc(C(C)C)cs3)nc2c1C [Compound 76a, (Z)-(4R,6S,16S,18R)-[2,15-dioxo-18-[7-methoxy-8-methyl-2-(4-isopropylthiazol-2-yl)quinolin-4-yloxy]-14-N-methyl-1,3,14-triazatricyclo[14.3.0.0]nonadec-7-en-4-yl]carbonyl(1-methyl-cyclopropyl)sulfonamide]
[1]
  IC50: 1000 to 10000 nM
[2]
  CC50: > 75000 nM
[3]; 72 hr
  EC50: 1000 to 10000 nM

## COc1ccc2c(O[C@H]3C[C@H]4C(=O)N(C)CCCCC=C[C@@H]5C[C@@]5(C(=O)NS(=O)(=O)C5CC5)NC(=O)N4C3)cc(-n3ccc(C(F)(F)F)n3)nc2c1Cl
[8]; from C=CCCCCN(C)C(=O)[C@@H]1C[C@H](Oc2cc(-n3ccc(C(F)(F)F)n3)nc3c(Cl)c(OC)ccc23)CN1C(=O)N[C@]1(C(=O)NS(=O)(=O)C2CC2)C[C@H]1C=C, Zhan 1B, 1.0 mM, 60.0 °C, 18.0 h
  ring closure, isolated yield: 40%

## COc1ccc2c(O[C@H]3C[C@H]4C(=O)N(C)CCCC/C=C\[C@@H]5C[C@@]5(C(=O)NS(=O)(=O)C5(C)CC5)NC(=O)N4C3)cc(-c3nc(C(F)(F)F)cs3)nc2c1C [Compound 68b, (Z)-(4R,6S,15S,17S)-[17-[7-methoxy-8-methyl-2-(4-trifluoromethythiazol-2-yl)quinolin-4-yloxy]-13-N-methyl-2,14-dioxo-1,3,13-triazatricyclo[13.3.0.0]octadec-7-en-4-yl]carbonyl(1-methylcyclopropyl)sulfonamide]
[8]; from C=CCCCCN(C)C(=O)[C@@H]1C[C@H](Oc2cc(-c3nc(C(F)(F)F)cs3)nc3c(C)c(OC)ccc23)CN1C(=O)N[C@]1(C(=O)NS(=O)(=O)C2(C)CC2)C[C@H]1C=C, Zhan 1B (8%), 4.9 mM, 75.0 °C, 4.33 h
  ring closure, isolated yield: 30%
[1]
  IC50: < 1000 nM
[4]
  EC50: < 1000 nM
[5]
  CC50: 10000 to 75000 nM
[6]
  CC50: > 75000 nM
[3]; [9]
  EC50: < 1000 nM
[7]
  EC50: < 1000 nM

## COc1ccc2c(O[C@H]3C[C@H]4C(=O)N(C)CCCC/C=C\[C@@H]5C[C@@]5(C(=O)NS(=O)(=O)C5CC5)NC(=O)N4C3)cc(-c3csc(C#N)n3)nc2c1Cl [Compound T1, (Z)-(4R,6S,15S,17S)-[17-[8-chloro-7-methoxy-2-(2-cyanothiazol-4-yl)quinolin-4-yloxy]-13-N-methyl-2,14-dioxo-1,3,13-triazatricyclo-[13.3.0.0]octadec-7-en-4-yl]carbonyl-(cyclopropyl)sulfonamide]
[1]
  IC50: < 1000 nM
[2]
  CC50: 10000 to 75000 nM
[3]; 72 hr
  EC50: < 1000 nM

— patent US8003659B2, “Macrocyclic serine protease inhibitors” (Indenix Pharmaceuticals, Inc., priority 2008, dated 2011)
